Assay results taken from PubChem BioAssay AID1259407 (Chemical Carcinogenesis Research Information System (CCRIS), 2018).
Active and inactive are the calls of the source. The rule behind the calls is not given here.

Test system: CCRIS mutagenicity, Ames/micronucleus/aberration tests
Experiment: CCRIS mutagenicity studies
Conditions: Test System: AMES SALMONELLA TYPHIMURIUM, Method: STANDARD PLATE

## CCCOc1cc(N=Nc2ccc(N(CC)CC)cc2)ccc1N=Nc1c(S(=O)(=O)O)cc2ccc(N)cc2c1O
Strain/Indicator: TA98, Metabolic Activation: RAT, LIVER, S-9, AROCLOR 1254
  mutagenic call: active; positive
Strain/Indicator: TA100, Metabolic Activation: NONE
  mutagenic call: inactive; negative
Strain/Indicator: TA100, Metabolic Activation: RAT, LIVER, S-9, AROCLOR 1254
  mutagenic call: inactive; negative
Strain/Indicator: TA1538, Metabolic Activation: NONE
  mutagenic call: inactive; negative
Strain/Indicator: TA1538, Metabolic Activation: RAT, LIVER, S-9, AROCLOR 1254
  mutagenic call: active; positive
